# Molecular target: human CRFR1 (Homo sapiens (Human), UniProt P34998)
# Test: CRFR1 Binding Test;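 note: nonspecific binding was determined with a 4,000-fold excess of unlabelled sauvagine and subtracted from every reading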
# Conditions: competition with 100 pM 125I-CRF, SPA method, membrane fraction of human CRFR1-expressing HEK293 cells; read-out: CRF1 receptor binding capacity IC50
# Sequence of human CRFR1 (P34998 24-415): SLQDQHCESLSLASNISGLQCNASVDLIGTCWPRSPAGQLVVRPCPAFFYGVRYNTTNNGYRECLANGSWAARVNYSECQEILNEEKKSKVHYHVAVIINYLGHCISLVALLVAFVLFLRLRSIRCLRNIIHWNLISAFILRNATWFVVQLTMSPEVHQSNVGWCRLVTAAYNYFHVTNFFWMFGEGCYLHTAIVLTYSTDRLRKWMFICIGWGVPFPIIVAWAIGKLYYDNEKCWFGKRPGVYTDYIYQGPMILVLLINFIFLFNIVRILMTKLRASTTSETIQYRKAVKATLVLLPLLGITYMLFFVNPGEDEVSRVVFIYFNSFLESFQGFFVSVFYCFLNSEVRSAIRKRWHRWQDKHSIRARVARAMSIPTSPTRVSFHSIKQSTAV
row,SMILES,IC50 [µM]
1,"CCN(CC1C2COCC21)c1c(OC)nn2c(-c3c(OC)cc(C4CC4)cc3OC)csc12 (single isomer, unassigned; diastereomer 1) [Example 97, 3-(4-Cyclopropyl-2,6-dimethoxyphenyl)-N-ethyl-6-methoxy-N-[3-oxabicyclo[3.1.0]hex-6-ylmethyl]pyrazolo[5,1-b][1,3]thiazole-7-amine (diastereomer 1)]",0.08
2,"COCc1cc(OC)c(-c2csc3c(N(CC4CCC4)CC4C5COCC54)c(OC)nn23)c(OC)c1 (single isomer, unassigned; diastereomer 1) [Example 98, N-(Cyclobutylmethyl)-3-[2,6-dimethoxy-4-(methoxymethyl)phenyl]-6-methoxy-N-[3-oxabicyclo[3.1.0]hex-6-ylmethyl]-pyrazolo[5,1-b][1,3]thiazole-7-amine (diastereomer 1)]",0.088
3,"COCc1cc(OC)c(-c2csc3c(N(CC4CC4)CC4C5COCC54)c(OC)nn23)c(OC)c1 (single isomer, unassigned; diastereomer 2) [Example 96, N-(Cyclopropylmethyl)-3-[2,6-dimethoxy-4-(methoxymethyl)phenyl]-6-methoxy-N-[3-oxabicyclo[3.1.0]hex-6-ylmethyl]-pyrazolo[5,1-b][1,3]thiazole-7-amine (diastereomer 2)]",0.062
4,"COCc1cc(OC)c(-c2c(SC)sc3c(N(CC4CCOCC4)CC4CC4)c(C)nn23)c(OC)c1 [Example 1, N-(Cyclopropylmethyl)-3-[2,6-dimethoxy-4-(methoxymethyl)phenyl]-6-methyl-2-(methylthio)-N-(tetrahydro-2H-pyran-4-ylmethyl)pyrazolo[5,1-b][1,3]thiazole-7-amine]",0.093
5,"CCCN(CCC)c1c(C)nn2c(-c3c(OC)cc(COC)cc3OC)c([S+](C)[O-])sc12 (centres unmarked) [Example 3, 3-[2,6-Dimethoxy-4-(methoxymethyl)phenyl]-6-methyl-2-(methylsulfinyl)-N,N-dipropylpyrazolo[5,1-b][1,3]thiazole-7-amine]",0.297
6,"CCCN(c1c(OC)nn2c(-c3c(OC)cc(COC)cc3OC)c(C)sc12)C1CCOCC1 [Example 7, [3-(2,6-Dimethoxy-4-methoxymethyl-phenyl)-6-methoxy-2-methyl-pyrazolo[5,1-b][1,3]thiazol-7-yl]-propyl-(tetrahydro-pyran-4-yl)-amine]",0.094
7,"COCc1cc(OC)c(-c2c(C)sc3c(N(CC4CC4)CC4CCOC4)c(OC)nn23)c(OC)c1 (centres unmarked) [Example 8, Cyclopropylmethyl-[3-(2,6-dimethoxy-4-methoxymethyl-phenyl)-6-methoxy-2-methyl-pyrazolo[5,1-b][1,3]thiazol-7-yl]-(tetrahydro-furan-3-ylmethyl)-amine]",0.051
8,"COCc1cc(OC)c(-c2csc3c(N(CC4CC4)C4CCOC4)c(OC)nn23)c(OC)c1 (centres unmarked) [Example 13, N-(Cyclopropylmethyl)-3-[2,6-dimethoxy-4-(methoxymethyl)phenyl]-6-methoxy-N-(tetrahydrofuran-3-yl)pyrazolo[5,1-b][1,3]thiazole-7-amine]",0.056
9,"CCCN(c1c(OC)nn2c(-c3c(OC)cc(C)cc3OC)csc12)C1CCOCC1 [Example 17, 3-(2,6-Dimethoxy-4-methylphenyl)-6-methoxy-N-propyl-N-(tetrahydro-2H-pyran-4-yl)pyrazolo[5,1-b][1,3]thiazole-7-amine]",0.056
10,"COc1cc(C(C)OC)cc(OC)c1-c1csc2c(N(CC3CC3)CC3CCOC3)c(OC)nn12 (centres unmarked) [Example 19, N-(Cyclopropylmethyl)-3-[2,6-dimethoxy-4-(1-methoxyethyl)phenyl]-6-methoxy-N-(tetrahydrofuran-3-ylmethyl)pyrazolo[5,1-b][1,3]thiazole-7-amine]",0.052
11,"CCc1cc(OC)c(-c2csc3c(N(CC4CC4)CC4CCOC4)c(OC)nn23)c(OC)c1 (centres unmarked) [Example 23, Cyclopropylmethyl-[3-(4-ethyl-2,6-dimethoxy-phenyl)-6-methoxy-pyrazolo[5,1-b][1,3]thiazol-7-yl]-(tetrahydro-furan-3-ylmethyl)amine]",0.044
12,"CCCN(CCC)c1c(OC)nn2c(-c3c(OC)cc(COC)cc3OC)csc12 [Example 24, 3-[2,6-Dimethoxy-4-(methoxymethyl)phenyl]-6-methoxy-N,N-dipropylpyrazolo[5,1-b][1,3]thiazole-7-amine]",0.026
13,"COc1cc(C)cc(OC)c1-c1csc2c(N(CC3CC3)C3CCOCC3)c(OC)nn12 [Example 25, N-(Cyclopropylmethyl)-3-(2,6-dimethoxy-4-methylphenyl)-6-methoxy-N-(tetrahydro-2H-pyran-4-yl)pyrazolo[5,1-b][1,3]thiazole-7-amine]",0.043
14,"COc1cc(C)cc(OC)c1-c1csc2c(N(CC3CC3)CC3CCOC3)c(OC)nn12 (centres unmarked) [Example 26, N-(Cyclopropylmethyl)-3-(2,6-dimethoxy-4-methylphenyl)-6-methoxy-N-(tetrahydrofuran-3-ylmethyl)pyrazolo[5,1-b][1,3]thiazole-7-amine]",0.033
15,"CCCCN(CCOC)c1c(OC)nn2c(-c3c(OC)cc(COC)cc3OC)csc12 [Example 28, N-Butyl-3-[2,6-dimethoxy-4-(methoxymethyl)phenyl]-6-methoxy-N-(2-methoxyethyl)pyrazolo[5,1-b][1,3]thiazole-7-amine]",0.04
16,"COc1cc(Cl)cc(OC)c1-c1csc2c(N(CC3CC3)CC3CCOC3)c(OC)nn12 (centres unmarked) [Example 30, 3-(4-Chloro-2,6-dimethoxyphenyl)-N-(cyclopropylmethyl)-6-methoxy-N-(tetrahydrofuran-3-ylmethyl)pyrazolo[5,1-b][1,3]thiazole-7-amine]",0.049

# Continued by falling IC50, values first:
row,IC50 [µM],SMILES
1,0.132,"CCCN(CC1CCOC1)c1c(OC)nn2c(-c3cnc(N(C)C)cc3OC)csc12 (centres unmarked) [Example 16, [3-(6-Dimethylamino-4-methoxy-pyridin-3-yl)-6-methoxy-pyrazolo[5,1-b][1,3]thiazol-7-yl]-propyl-(tetrahydro-furan-3-ylmethyl)-amine]"
2,0.116,"CCCN(c1c(OC)nn2c(-c3c(OC)cc(COC)cc3OC)c(CC)sc12)C1CCOCC1 [Example 9, [3-(2,6-Dimethoxy-4-methoxymethyl-phenyl)-2-ethyl-6-methoxy-pyrazolo[5,1-b][1,3]thiazol-7-yl]-propyl-(tetrahydro-pyran-4-yl)-amine]"
3,0.089,"COc1cc(C#N)cc(OC)c1-c1csc2c(N(CC3CC3)CC3C4COCC43)c(OC)nn12 (single isomer, unassigned; diastereomer 1) [Example 100]"
4,0.071,"CCCCN(CC1COCOC1)c1c(OC)nn2c(-c3c(OC)cc(COC)cc3OC)csc12 [Example 12, Butyl-[3-(2,6-dimethoxy-4-methoxymethyl-phenyl)-6-methoxy-pyrazolo[5,1-b][1,3]thiazol-7-yl)-[1,3]dioxan-5-ylmethyl-amine]"
5,0.064,"CCCN(c1c(OC)nn2c(-c3c(OC)cc(CC)cc3OC)csc12)C1CCOCC1 [Example 22, [3-(4-Ethyl-2,6-dimethoxyphenyl)-6-methoxypyrazolo[5,1-b][1,3]thiazol-7-yl]-propyl-(tetrahydro-pyran-4-yl)amine]"
6,0.045,"COCc1cc(OC)c(-c2csc3c(N(CC4CCC4)C4CCOC4)c(OC)nn23)c(OC)c1 (centres unmarked) [Example 29, N-(Cyclobutylmethyl)-3-[2,6-dimethoxy-4-(methoxymethyl)phenyl]-6-methoxy-N-(tetrahydrofuran-3-yl)pyrazolo[5,1-b][1,3]thiazole-7-amine]"
7,0.039,CCCN(CCC)c1c(C)nn2c(-c3c(OC)cc(COC)cc3OC)c(SC)sc12 [Example 2]
